Measurements: US7842471B2, “Ultra sensitive biosensor for detecting bio-signal transmitters, and detector and detecting method using the same” (priority 2007, dated 2010)

Tests used:
[1] = test system: NR1-1a/NR2A2D; assay: D-serine or glycine release from astrocytes detected with NR1-1a/NR2A2D-transfected HEK cells; type: cell-based; conditions: 100 uM glutamate + 10 uM DCKA vs 100 uM glutamate alone; 500 uM TFLLR
Experimental: HEK 293 cells were transfected NR1-1a and NR2A2D at a ratio of 1:2 by using the calcium phosphate method using effectence for 6-8 hours, after which the media was replaced and supplemented with 5 mM magnesium chloride and 10 μM D-2-amino-phosphonopentanoic acid or 10 μM D-AP5. The transfected HEK cells were subsequently trypsinized and replated onto astrocyte feeder layers derived from wild-type 24 hours post-transfection, and recordings performed 24 hours after replating. The prepared transfectant was used as a biosensor in the following examples.
To activate the NMDA receptor, it is necessary for the two subunits to bind to the corresponding binding materials, respectively. The activation may be confirmed by measuring intracellular inward current.
In this example, the media was supplemented with sufficient glutamate to saturate the glutamate domain. The intracellular inward current in the biosensor prepared in Example 5, under the conditions with or without treating a glycine binding domain blocker, DCKA, which artificially makes a glycine-free or D-serine-free condition, to examine the glycine or D-serine detecting ability of the biosensor.

[2] = test system: HEK cells; assay: Ca2+-sensitive dye imaging in HEK cells (endogenous PAR1); type: cell-based; conditions: TFLLR application, co-culture on PAR1-/- astrocytes
Experimental: (§1) FIG. 1a is a schematic illustrating experimental setup and a GFP fluorescent image of astrocyte—GluR1(L497Y)/GFP transfected HEK cell co-culture (upper left panel). […] The Fura2-AM loading was performed by incubating with 5 μM Fura2-AM in 1 μM pluronic acid (Molecular Probes) for 30 min at room temperature. The calibration bar is 20 μm.
(§2) These control experiments were performed on the same day as TFLLR stimulation of HEK cells on wild-type astrocytes, and confirm that PAR1 activators had no direct effect on GluR1(L497Y) currents in HEK cells.

[3] = test system: PAR1-/- astrocytes; assay: Ca2+-sensitive dye imaging in PAR1-/- astrocytes; type: cell-based, mice; conditions: TFLLR application
Experimental: as §1, §2

[4] = test system: PAR1-/- astrocytes; assay: sniffer-patch detection of glutamate release from PAR1-/- astrocytes with GluR1(L497Y)-transfected HEK cells; type: cell-based, mice
Experimental: (§3) HEK 293 cells were transfected with a 1:3.5 ratio of GFP and GluR1(L497Y) using the calcium phosphate method using effectence for 6-8 hours, after which the media was replaced and supplemented with 1 mM kynurenic acid and 10 μM N-(4-hydroxyphenylpropanoyl) spermine or 10 μM CNQX. The transfected HEK cells were subsequently trypsinized and replated onto astrocyte feeder layers derived from either wild-type or PAR1−/− mice 24 hours post-transfection, and recordings were performed 24 hours after replating. The prepared transfectant was used as a biosensor in the following examples.
(§4) GluR1(L497Y)-transfected HEK cells were directly plated onto an astrocyte monolayer, and subsequently the whole cell HEK current response under voltage clamp during brief 0.2 sec application of the PAR1 activator TFLLR (500 μM), ATP (300 μM), or bradykinin (180 μM), respectively, from a pressurized pipette was recorded (FIGS. 1a, and 1b).

[5] = test system: acutely dissociated CA1 astrocytes; assay: glutamate release from acutely dissociated CA1 hippocampal astrocytes detected with GluR1(L497Y)-transfected HEK cells; type: cell-based, mice; conditions: brief (1 sec) application of TFLLR; n=4
From the text: Cells were acutely dissociated from the CA1 region of hippocampal slices prepared from transgenic mice (Jackson Laboratories) expressing GFP under control of the GFAP promoter (Brenner et al., 1994), allowing to unambiguously identify isolated hippocampal astrocytes that had not been subject to tissue culture. Cells were dissociated directly onto GluR1(L497Y)-transfected HEK cells obtained in Example 1.

[6] = test system: cultured neurons; assay: glutamate release from cultured neurons detected with GluR1(L497Y)-transfected HEK cells; type: cell-based
Experimental: To verify this prediction, effects of a hyperosmotic solution on the glutamate-release from cultured neurons and astrocytes were evaluated and are shown in FIGS. 3a to 3c.
The detection is abolished by the treatment of 10 μM CNQX. The right panel is the summary of the current amplitude changes; *p<0.05; paired t-test (n=6).
That is, a brief application of TFLLR caused no detectable glutamate-induced current in GluR1(L497Y)-transfected HEK cells adjacent to neurons.

[7] = test system: wild-type astrocytes; assay: Fura-2 Ca2+ imaging in wild-type astrocytes; type: cell-based, mice; conditions: brief (<1 sec) pressure application; 500 μM TFLLR, 300 μM ATP, 180 μM bradykinin; Fura-2-AM
Experimental: as §1

[8] = test system: cultured cortical astrocytes; assay: sniffer-patch detection of glutamate release from cultured wild-type astrocytes with GluR1(L497Y)-transfected HEK cells; type: cell-based, mice; conditions: for inward current in HEK cells expressing GluR1(L497Y): brief (<1 sec) pressure application, 500 μM TFLLR, 300 μM ATP, 180 μM bradykinin, wild-type astrocytes
Experimental: as §3
In this experimental example, the glutamate release from astrocytes was quantitatively evaluated in real time by a “sniffer-patch” detection system. […] The “sniffer-patch” method was performed according to “T. G. J. Allen, Trends Neurosci., Vol. 20, No. 5 pp. […], 1997”, unless there is different mention thereto.
Cultured astrocytes were prepared from P0-P3 postnatal mice obtained from KIST SPF. The cerebral cortex was dissected free of adherent meninges, minced, and dissociated into single cell suspension by trituration through a Pasteur pipette. All procedures involving the use of animals were reviewed and approved by the Emory University IACUC. Dissociated cells were plated onto either 12 mm glass coverslips or 6 well plates coated with 0.1 mg/ml poly-D-lysine. Cells were grown in DMEM media (Gibco, cat# 11960-044) supplemented with 25 mM glucose, 10% heat-inactivated horse serum, and 10% heat-inactivated fetal bovine serum, 2 mM glutamine, and 1000 units/ml penicillin-streptomycin. Cultures were maintained at 37° C. in a humidified 5% CO2-containing atmosphere. Astrocyte cultures prepared in this way were previously determined by GFAP (glial fibrillary acidic protein) staining to be greater than 95% astrocytes (Nicole et al., 2005). In some experiments, the culture media was replaced 24 hours after plating with DMEM with all added components except glutamine, and cultures were maintained for 4 days before experimentation in glutamine-free media.
Thus, this technique provides millisecond time resolution for the detection of micromolar levels of glutamate released from astrocytes.
as §4

[9] = target: T1, GluR1(L497Y) (Rattus norvegicus, UniProt P19490, L497Y); assay: glutamate activation of GluR1(L497Y) current in transfected HEK cells (dose response); type: cell-based
T1 construct: expressed in transfected cells; host or cells: HEK 293 cells (ATCC1573)
Experimental: as §3

T1 sequence (P19490 19-907 L497Y): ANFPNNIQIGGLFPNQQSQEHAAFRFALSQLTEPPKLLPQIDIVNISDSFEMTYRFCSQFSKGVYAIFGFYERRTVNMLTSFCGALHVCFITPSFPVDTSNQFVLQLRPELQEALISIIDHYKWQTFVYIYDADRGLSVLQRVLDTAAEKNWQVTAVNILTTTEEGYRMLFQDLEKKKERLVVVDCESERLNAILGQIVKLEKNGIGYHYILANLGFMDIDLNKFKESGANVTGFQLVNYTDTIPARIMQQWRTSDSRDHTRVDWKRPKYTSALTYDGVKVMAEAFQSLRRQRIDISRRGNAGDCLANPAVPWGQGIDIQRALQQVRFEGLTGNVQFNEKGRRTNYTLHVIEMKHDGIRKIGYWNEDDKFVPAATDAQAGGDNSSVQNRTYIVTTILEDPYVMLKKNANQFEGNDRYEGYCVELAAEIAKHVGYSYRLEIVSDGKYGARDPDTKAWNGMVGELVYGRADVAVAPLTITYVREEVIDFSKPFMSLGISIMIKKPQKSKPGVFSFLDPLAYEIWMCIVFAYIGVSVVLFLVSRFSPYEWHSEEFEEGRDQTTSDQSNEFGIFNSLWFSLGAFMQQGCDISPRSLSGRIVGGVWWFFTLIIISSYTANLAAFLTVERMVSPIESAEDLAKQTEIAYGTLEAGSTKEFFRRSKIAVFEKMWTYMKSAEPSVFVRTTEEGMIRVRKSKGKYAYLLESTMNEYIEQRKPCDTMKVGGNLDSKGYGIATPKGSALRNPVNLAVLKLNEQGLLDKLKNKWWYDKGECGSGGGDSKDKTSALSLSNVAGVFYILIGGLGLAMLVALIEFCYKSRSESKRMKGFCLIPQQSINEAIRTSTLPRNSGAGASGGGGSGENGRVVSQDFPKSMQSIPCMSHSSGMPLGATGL

## O=C(O)c1cc(=O)c2c(Cl)cc(Cl)cc2[nH]1 [DCKA, 5,7-dichlorokynurenic acid]
[1]
  inward current value after treating TFLLR: considerably decreased

## TFLLR
[2]
  HEK cell intracellular Ca2+: did increase
[3]
  PAR1-/- astrocytic intracellular Ca2+: did not alter
[4]; PAR1-/- astrocyte cultures, TFLLR application, converted from current by Formula 1
  peak (maximum) glutamate concentration: 0.23 ± 0.13 µM
[4]; percent of maximal response, applied to PAR1-/- astrocytes
  glutamate evoked current (%): 1.4±0.9%
[5]
  glutamate release (concentration) evoked by TFLLR: 1.46 ± 0.54 µM
[6]; 30 μM TFLLR or hyperosmotic solution, n=3
  glutamate-induced current in GluR1(L497Y) HEK cells adjacent to neurons: 3.0±0.1 pA
[7]
  astrocytic intracellular Ca2+: increased
[8]; astrocytes cultured in the absence of glutamine, TFLLR 500 μM, n=4
  current response, % of the maximal response: 9.7 ± 1.3%
[8]
  inward current in HEK cells expressing GluR1(L497Y): elicited an inward current
[8]; percent of maximal response, applied to wild-type astrocytes, glutamine-containing medium, TFLLR 500 μM in pipette
  glutamate evoked current (%): 10±2.6%
[8]; same-day positive control, TFLLR or hyperosmotic solution, n=4
  glutamate-induced current in GluR1(L497Y) HEK cells on astrocytes: 136±35 pA
[8]; wild-type astrocyte cultures, TFLLR application, converted from current by Formula 1
  peak (maximum) glutamate concentration: 1.1 ± 0.24 µM

## Nc1ncnc2c1ncn2[C@@H]1O[C@H](COP(=O)(O)OP(=O)(O)OP(=O)(O)O)[C@@H](O)[C@H]1O [ATP]
[7]
  astrocytic intracellular Ca2+: increased
[8]
  inward current in HEK cells expressing GluR1(L497Y): elicited an inward current

## N[C@@H](CCC(=O)O)C(=O)O [glutamate]
[9]
  Hill slope: 1.3

## N#Cc1cc2[nH]c(=O)c(=O)[nH]c2cc1[N+](=O)[O-] [CNQX]
[6]; 10 μM CNQX, hyperosmotic solution 530 mosmol
  effect on detection of neuronal glutamate release evoked by hyperosmotic solution: abolished
[8]; CNQX 10 μM, glutamine-free medium
  effect on inward currents evoked by TFLLR: completely abolished
